Among the test systems are HCC-2998 colon; SF-295 CNS; UACC-62 melanoma; SK-MEL-28 melanoma; A498 renal; IGROV1 ovarian; SF-268 CNS; OVCAR-4 ovarian; M14 melanoma; HCT-116 colon.
Assay in all cases: growth of human tumour cells (NCI), 48 h

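These data come from cells grown in 96-well plates and exposed to compound for 48 hours at five concentrations. GI50 is the concentration that inhibits growth by half. TGI denotes the concentration required for complete inhibition of growth.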 Some results are limits rather than exact numbers.

Take `FC(F)(F)c1cc(-c2nnc3n2N=C(N2CCCC2)CS3)cc(C(F)(F)F)c1`: the GI50 was greater than 50 µM in the experiment on HCC-2998 colon; 19.2 µM in the experiment with SF-295 CNS; greater than 50 µM in the experiment on UACC-62 melanoma; greater than 50 µM with SK-MEL-28 melanoma; greater than 50 µM with A498 renal; greater than 50 µM in the experiment on IGROV1 ovarian. For the same compound, the GI50 in the experiment with SF-268 CNS was greater than 50 µM; in the experiment with OVCAR-4 ovarian it was greater than 50 µM; in the experiment on M14 melanoma it was greater than 50 µM; with HCT-116 colon, 7.99 µM. Further, the TGI in the experiment on HCC-2998 colon, with SF-295 CNS, in the experiment on UACC-62 melanoma, with SK-MEL-28 melanoma, in the experiment with A498 renal and with IGROV1 ovarian was greater than 50 µM in each case. Moreover, the TGI with SF-268 CNS, in the experiment on OVCAR-4 ovarian, with M14 melanoma and with HCT-116 colon was greater than 50 µM throughout.

The values are drawn from PubChem BioAssay (NCI).
